Test results as given in PubChem BioAssay (NCI).
Several values for one entry are separate records, joined by “and”; a condition that tells them apart may be missing. Equal entries are not always repeated.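 How tested: cells in 96-well plates exposed to compound for 48 hours at five concentrations. GI50 marks 50% less growth. TGI: total growth inhibition.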

Key:
Assay in all cases: growth of human tumour cells (NCI), 48 h
NCI-H23 lung = system: NCI-H23 lung
LXFL 529 NSCLC = system: LXFL 529 NSCLC
SR leukemia = system: SR leukemia
M14 melanoma = system: M14 melanoma
NCI-H226 lung = system: NCI-H226 lung
OVCAR-4 ovarian = system: OVCAR-4 ovarian
SK-MEL-5 melanoma = system: SK-MEL-5 melanoma
HCC-2998 colon = system: HCC-2998 colon
NCI-H460 lung = system: NCI-H460 lung
SN12C renal = system: SN12C renal
UACC-257 melanoma = system: UACC-257 melanoma
MOLT-4 leukemia = system: MOLT-4 leukemia
HL-60(TB) leukemia = system: HL-60(TB) leukemia
SK-MEL-2 melanoma = system: SK-MEL-2 melanoma
U251 CNS = system: U251 CNS
DMS 273 small cell lung = system: DMS 273 small cell lung
HCT-15 colon = system: HCT-15 colon
TK-10 renal = system: TK-10 renal
A549 NSCLC = system: A549 NSCLC
UACC-62 melanoma = system: UACC-62 melanoma
SK-OV-3 ovarian = system: SK-OV-3 ovarian
SNB-75 CNS = system: SNB-75 CNS
SNB-78 CNS = system: SNB-78 CNS
COLO 205 colon = system: COLO 205 colon
SK-MEL-28 melanoma = system: SK-MEL-28 melanoma
OVCAR-8 ovarian = system: OVCAR-8 ovarian
RXF 393 renal = system: RXF 393 renal
K-562 leukemia = system: K-562 leukemia
UO-31 renal = system: UO-31 renal
786-0 renal = system: 786-0 renal
IGROV1 ovarian = system: IGROV1 ovarian
CAKI-1 renal = system: CAKI-1 renal
CCRF-CEM leukemia = system: CCRF-CEM leukemia
OVCAR-5 ovarian = system: OVCAR-5 ovarian
KM12 colon = system: KM12 colon
SNB-19 CNS = system: SNB-19 CNS
M19-MEL melanoma = system: M19-MEL melanoma
XF 498 CNS = system: XF 498 CNS
EKVX NSCLC = system: EKVX NSCLC
RPMI-8226 leukemia = system: RPMI-8226 leukemia
OVCAR-3 ovarian = system: OVCAR-3 ovarian
SW-620 colon = system: SW-620 colon
SF-539 CNS = system: SF-539 CNS
LOX IMVI melanoma = system: LOX IMVI melanoma
HCT-116 colon = system: HCT-116 colon
DLD-1 colon = system: DLD-1 colon
KM20L2 colon = system: KM20L2 colon
SF-295 CNS = system: SF-295 CNS
HT29 colon = system: HT29 colon
HOP-18 NSCLC = system: HOP-18 NSCLC
HOP-62 NSCLC = system: HOP-62 NSCLC
ACHN renal = system: ACHN renal
HOP-92 NSCLC = system: HOP-92 NSCLC
MALME-3M melanoma = system: MALME-3M melanoma
A498 renal = system: A498 renal
NCI-H522 lung = system: NCI-H522 lung
SF-268 CNS = system: SF-268 CNS

`C=[CH][Sn]([CH]=C)([S]c1cccc2cccnc12)[S]c1cccc2cccnc12` showed a GI50 (NCI-H23 lung) of 169 nM, a TGI (NCI-H23 lung) of 388 nM and a GI50 (LXFL 529 NSCLC) of 236 nM. It also gave a TGI (LXFL 529 NSCLC) of 649 nM, a GI50 (SR leukemia) of 216 nM and a TGI (SR leukemia) of 687 nM. The GI50 (M14 melanoma) was 210 nM, the TGI (M14 melanoma) was 404 nM and the GI50 (NCI-H226 lung) was 280 nM. It also gave a TGI (NCI-H226 lung) of 1150 nM, a GI50 (OVCAR-4 ovarian) of 204 nM and a TGI (OVCAR-4 ovarian) of 553 nM. The GI50 (SK-MEL-5 melanoma) was 203 nM, the TGI (SK-MEL-5 melanoma) was 389 nM and the GI50 (HCC-2998 colon) was 212 nM. For the same compound, the TGI (HCC-2998 colon) was 437 nM, the GI50 (NCI-H460 lung) was 201 nM and the TGI (NCI-H460 lung) was 417 nM. For the same compound, the GI50 (SN12C renal) was 442 nM, the TGI (SN12C renal) was 1600 nM and the GI50 (UACC-257 melanoma) was 212 nM. The TGI (UACC-257 melanoma) was 494 nM, the GI50 (MOLT-4 leukemia) was 287 nM and the TGI (MOLT-4 leukemia) was 967 nM. It also gave a GI50 (HL-60(TB) leukemia) of 268 nM, a TGI (HL-60(TB) leukemia) of 611 nM and a GI50 (SK-MEL-2 melanoma) of 222 nM. For the same compound, the TGI (SK-MEL-2 melanoma) was 490 nM, the GI50 (U251 CNS) was 191 nM and the TGI (U251 CNS) was 380 nM. It also gave a GI50 (DMS 273 small cell lung) of 216 nM, a TGI (DMS 273 small cell lung) of 486 nM and a GI50 (HCT-15 colon) of 237 nM. It also gave a TGI (HCT-15 colon) of 648 nM, a GI50 (TK-10 renal) of 458 nM and a TGI (TK-10 renal) of 1460 nM. For the same compound, the GI50 (A549 NSCLC) was 343 nM, the TGI (A549 NSCLC) was 1120 nM and the GI50 (UACC-62 melanoma) was 147 nM. For the same compound, the TGI (UACC-62 melanoma) was 287 nM, the GI50 (SK-OV-3 ovarian) was 436 nM and the TGI (SK-OV-3 ovarian) was 1550 nM. The GI50 (SNB-75 CNS) was 562 nM, the TGI (SNB-75 CNS) was 2370 nM and the GI50 (SNB-78 CNS) was 145 nM. It also gave a TGI (SNB-78 CNS) of 396 nM, a GI50 (COLO 205 colon) of 70.2 nM and a TGI (COLO 205 colon) of 254 nM. The GI50 (SK-MEL-28 melanoma) was 138 nM, the TGI (SK-MEL-28 melanoma) was 321 nM and the GI50 (OVCAR-8 ovarian) was 313 nM. The TGI (OVCAR-8 ovarian) was 1000 nM, the GI50 (RXF 393 renal) was 255 nM and the TGI (RXF 393 renal) was 678 nM. The GI50 (K-562 leukemia) was 234 nM, the TGI (K-562 leukemia) was 621 nM and the GI50 (UO-31 renal) was 181 nM. The TGI (UO-31 renal) was 358 nM, the GI50 (786-0 renal) was 216 nM and the TGI (786-0 renal) was 452 nM. The GI50 (IGROV1 ovarian) was 273 nM, the TGI (IGROV1 ovarian) was 726 nM and the GI50 (CAKI-1 renal) was 366 nM. It also gave a TGI (CAKI-1 renal) of 1580 nM, a GI50 (CCRF-CEM leukemia) of 76.7 nM and a TGI (CCRF-CEM leukemia) of 641 nM. For the same compound, the GI50 (OVCAR-5 ovarian) was 237 nM, the TGI (OVCAR-5 ovarian) was 745 nM and the GI50 (KM12 colon) was 176 nM. It also gave a TGI (KM12 colon) of 322 nM, a GI50 (SNB-19 CNS) of 794 nM and a TGI (SNB-19 CNS) of 2040 nM. The GI50 (M19-MEL melanoma) was 194 nM, the TGI (M19-MEL melanoma) was 372 nM and the GI50 (XF 498 CNS) was 283 nM. The TGI (XF 498 CNS) was 679 nM, the GI50 (EKVX NSCLC) was 678 nM and the TGI (EKVX NSCLC) was 1970 nM. The GI50 (RPMI-8226 leukemia) was 248 nM, the TGI (RPMI-8226 leukemia) was 692 nM and the GI50 (OVCAR-3 ovarian) was 268 nM. The TGI (OVCAR-3 ovarian) was 810 nM, the GI50 (SW-620 colon) was 156 nM and the TGI (SW-620 colon) was 299 nM. It also gave a GI50 (SF-539 CNS) of 321 nM, a TGI (SF-539 CNS) of 1010 nM and a GI50 (LOX IMVI melanoma) of 172 nM. It also gave a TGI (LOX IMVI melanoma) of 310 nM, a GI50 (HCT-116 colon) of 165 nM and a TGI (HCT-116 colon) of 318 nM. For the same compound, the GI50 (DLD-1 colon) was 244 nM, the TGI (DLD-1 colon) was 722 nM and the GI50 (KM20L2 colon) was 211 nM. It also gave a TGI (KM20L2 colon) of 449 nM, a GI50 (SF-295 CNS) of 438 nM and a TGI (SF-295 CNS) of 1830 nM. It also gave a GI50 (HT29 colon) of 226 nM, a TGI (HT29 colon) of 476 nM and a GI50 (HOP-18 NSCLC) of 1660 nM. For the same compound, the TGI (HOP-18 NSCLC) was 3020 nM, the GI50 (HOP-62 NSCLC) was 1450 nM and the TGI (HOP-62 NSCLC) was 3490 nM. The GI50 (ACHN renal) was 206 nM, the TGI (ACHN renal) was 507 nM and the GI50 (HOP-92 NSCLC) was 1590 nM. For the same compound, the TGI (HOP-92 NSCLC) was 3070 nM.

`COc1ccc(/C(Cl)=C(\CN(C)C)c2ccc(OC)c(OC)c2)cc1OC` was tested, and the TGI (NCI-H23 lung) was > 100000 nM, the TGI (LXFL 529 NSCLC) was > 100000 nM and the TGI (SR leukemia) was > 100000 nM. The TGI (M14 melanoma) was > 100000 nM, the TGI (NCI-H226 lung) was > 100000 nM and the TGI (SK-MEL-5 melanoma) was > 100000 nM. For the same compound, the TGI (HCC-2998 colon) was > 100000 nM, the TGI (NCI-H460 lung) was > 100000 nM and the TGI (MALME-3M melanoma) was > 100000 nM. The TGI (SN12C renal) was > 100000 nM, the TGI (UACC-257 melanoma) was > 100000 nM and the TGI (MOLT-4 leukemia) was > 100000 nM. For the same compound, the TGI (A498 renal) was > 100000 nM, the TGI (HL-60(TB) leukemia) was > 100000 nM and the TGI (SK-MEL-2 melanoma) was > 100000 nM. For the same compound, the TGI (U251 CNS) was > 100000 nM, the TGI (DMS 273 small cell lung) was > 100000 nM and the TGI (HCT-15 colon) was > 100000 nM. For the same compound, the GI50 (TK-10 renal) was > 27900 nM, the TGI (TK-10 renal) was > 100000 nM and the TGI (A549 NSCLC) was > 100000 nM. The TGI (UACC-62 melanoma) was > 100000 nM, the TGI (SK-OV-3 ovarian) was > 100000 nM and the TGI (SNB-75 CNS) was > 100000 nM. For the same compound, the TGI (SNB-78 CNS) was 97900 nM and > 100000 nM, the TGI (COLO 205 colon) was > 100000 nM and the TGI (SK-MEL-28 melanoma) was > 100000 nM. For the same compound, the TGI (NCI-H522 lung) was > 100000 nM, the TGI (OVCAR-8 ovarian) was > 100000 nM and the TGI (RXF 393 renal) was > 28600 nM. For the same compound, the TGI (K-562 leukemia) was > 100000 nM, the TGI (UO-31 renal) was > 100000 nM and the TGI (786-0 renal) was > 100000 nM. For the same compound, the TGI (IGROV1 ovarian) was > 100000 nM, the TGI (CAKI-1 renal) was > 100000 nM and the TGI (CCRF-CEM leukemia) was > 100000 nM. For the same compound, the TGI (OVCAR-5 ovarian) was > 100000 nM, the TGI (KM12 colon) was > 100000 nM and the TGI (SNB-19 CNS) was > 100000 nM. For the same compound, the TGI (M19-MEL melanoma) was > 100000 nM, the TGI (XF 498 CNS) was > 100000 nM and the TGI (EKVX NSCLC) was > 100000 nM. The TGI (RPMI-8226 leukemia) was > 100000 nM, the TGI (OVCAR-3 ovarian) was > 100000 nM and the TGI (SW-620 colon) was > 100000 nM. The TGI (SF-539 CNS) was > 100000 nM, the TGI (LOX IMVI melanoma) was > 100000 nM and the TGI (HCT-116 colon) was > 46400 nM. The TGI (DLD-1 colon) was > 100000 nM, the TGI (KM20L2 colon) was > 100000 nM and the TGI (SF-295 CNS) was > 100000 nM. The TGI (HT29 colon) was > 100000 nM, the TGI (HOP-18 NSCLC) was > 100000 nM and the TGI (SF-268 CNS) was > 100000 nM. The TGI (HOP-62 NSCLC) was > 100000 nM and the TGI (ACHN renal) was > 100000 nM.
